Experimental data from patent publication US12721823B2, “Methods and compositions for treatment of low circulating testosterone conditions” (University of Florida Research Foundation, Inc., priority 2021, dated 2026).

Tests used:
Assay type in all cases: in vivo, rat
Sprague-Dawley rats [1] = experiment: Elevated plus maze (EPM)
Excerpt: (§1) Sixty-four G1 rats (32 control and 32 sevoflurane exposed) and 122 G2 rats, which were not exposed to sevoflurane anesthesia and were subjected to animal facility rearing only, were studied. The G1 rats were sequentially evaluated in the EPM starting on ~P125, PPI of the acoustic startle response on ~P135 and MWM starting ~on P145 (FIG. 1). One half of these animals were sacrificed on ≥P160 to collect trunk blood, brain and testis and ovarian tissues for further analyses. The rest of these animals were physically restrained for 30 min on ≥P160 to measure corticosterone responses, followed by collection of tissue samples (as above) for further analyses. The G2 rats were evaluated in the EPM starting on P60 and PPI of startle on P70 (FIG. 1). One half of these animals were sacrificed on ≥P95 to collect trunk blood and brain tissue samples for further analyses, and the rest of these animals were tested for the corticosterone responses to physical restraint for 30 min on ≥P95 before collecting the trunk blood and brain tissue samples.
The EPM studies were performed using an EPM apparatus and BIO-EPM 3C video tracking software (EB Instruments, Pinellas Park, FL) during the light phase of the dark-light cycle as previously described by our laboratory.^5-7 If a fall occurred, the animal was removed from the study (one G1 male rat was removed from the study for this reason).

Sprague-Dawley rats [2] = experiment: Prepulse inhibition (PPI) of startle; settings: for startle amplitudes: all experimental groups; for PPI of startle at PP3: vs offspring of unexposed parents
Excerpt: as §1
The PPI of startle tests were performed using a SR-Lab startle apparatus (San Diego Instruments, San Diego, CA) as previously described.^5-7 The % PPI for each prepulse level was calculated using the following formula: % PPI=100×[(pulse alone)−(prepulse+pulse)]/pulse alone. Data were collected as Vmax amplitude.

Sprague-Dawley rats [3] = experiment: Morris water maze (MWM) test
Excerpt: as §1
The MWM tests were run using a MWM apparatus and data were analyzed using a computer-based video tracking system (Water 2020; HVS Image) as previously described. 5

Kcc2 gene promoter = experiment: Bisulfite sequencing of CpG sites in the Kcc2 gene promoter; settings: for DNA methylation in the Kcc2 gene promoter: vs con-M*con-F; for methylation of CpG sites in the Kcc2 gene promoter: vs control
Experimental: Genomic DNA was extracted from the sperm pellet and ovaries of adult G1 rats and from hippocampal and hypothalamic tissues of G2 rats using the DNeasy Blood and Tissue kit (Qiagen, Hilden, Germany). The sodium bisulfite conversion was performed with EZ DNA Methylation kits (Zymo Research, Irvine, CA) following the manufacturer's instructions. The primers (Kcc2: forward: […] (SEQ ID NO: 1); reverse: […] (SEQ ID NO: 2) were designed for the bisulfite-converted DNA sequences, using previously published sequences. 5 PCR amplification was performed with HotStar Taq (Qiagen, Hilden, Germany). Amplicons were cloned into pCR4-TOPO vector with the TOPO TA cloning kit for sequencing (Life Technologies, Carlsbad, CA). Miniprep was performed on each positive clone using ZR Plasmid Miniprep kit (Zymo Research, Irvine, CA). Sanger sequencing was done by Genewiz (South Plainfield, NJ, USA) using M13R primers. The DNA methylation status of all CpG sites was analyzed using Benchling Molecular Biology 2.0 Software (Benchling, San Francisco, CA). The bisulfite sequencing analysis of the Kcc2 DNA was performed only in G2 male progeny of con-M*con-F and sevo-M*sevo-F matings.

[4] = test system: Sprague-Dawley F0 male rats; experiment: Long-term serum testosterone after SEVO with or without surgery and TBI; settings: young adult F0 male rats exposed to SEVO; FIG. 11A
Experimental: The Sprague-Dawley F0 male rats in the TBI group had SEVO exposure for 40 min to conduct a craniectomy and injury hub implantation on P60. After 60 min of recovery, they were reanesthetized with SEVO for 3 min to induce moderate TBI using a midline fluid percussion injury (FPI) model. The TBI+SEVO group had additional exposure to SEVO for 3 h on P62, P64, and P66. These subsequent exposures to SEVO, which may be needed to treat accompanying conditions, such as orthopedic, abdominal, or thoracic injuries, were used to study whether the effects of SEVO, surgery, and TBI interact to induce their effects. The Sham group had all exposures to SEVO and craniectomy but not TBI. The SEVO-SEVO group had all exposures to SEVO only. The control group had none of these procedures, except being placed in a new cage for an equivalent duration and number of times. A subset of F0 male rats was sacrificed on P66 1 h after the last exposure to SEVO for 3 h or at equivalent timepoints to collect blood to study acute neuroendocrine effects (FIG. 11A). The serum corticosterone levels before and after physical restraint for 30 min were measured ion P140. Ten days after completing the in vivo studies, the same rats were sacrificed and trunk blood samples were collected to measure serum levels of testosterone.

[5] = G1 male rats, more than two months after exposure, vs control
[6] = G2 females, all groups of parental exposure
[7] = G2 male offspring of both exposed parents

EPM parameters (time in open arms, number of crossings, distance traveled) (Sprague-Dawley rats [1]; G1 female rats, vs control): no significant between-subjects effect
distance traveled, EPM (Sprague-Dawley rats [1]; [5]): did not differ
number of crossings, EPM (Sprague-Dawley rats [1]; [5]): did not differ
time spent in open arms, EPM (Sprague-Dawley rats [1]; [5]): spent less time in open arms
distances traveled, EPM (Sprague-Dawley rats [1]; [6]): similar
number of crossings, EPM (Sprague-Dawley rats [1]; [6]): similar
time spent in open arms, EPM (Sprague-Dawley rats [1]; [6]): similar
distance traveled, EPM (Sprague-Dawley rats [1]; [7]): shorter distances
number of crossings, EPM (Sprague-Dawley rats [1]; [7]): fewer crossings
time spent in open arms, EPM (Sprague-Dawley rats [1]; G2 male progeny of exposed fathers and exposed mothers, vs offspring of control parents): spent less time in open arms
time spent in open arms, EPM (Sprague-Dawley rats [1]; G2 male progeny of sevoflurane exposed fathers and unexposed mothers, vs offspring of control parents): spent less time in open arms
time spent in open arms, EPM (Sprague-Dawley rats [1]; G2 male progeny of unexposed fathers and exposed mothers, vs offspring of control parents): spent less time in open arms
PPI of startle responses (Sprague-Dawley rats [2]; G1 male rats, prepulse intensity of 3 dB, vs control): impaired PPI of startle responses
startle amplitudes (Sprague-Dawley rats [2]; G2 female rats): similar
PPI of startle (Sprague-Dawley rats [2]; G2 female rats, parental sevoflurane exposure): no significant treatment effect
startle amplitudes (Sprague-Dawley rats [2]; G2 male rats): similar
PPI of startle at PP3 (Sprague-Dawley rats [2]; G2 males of both exposed parents): reduced PPI of startle
PPI of startle at PP3 (Sprague-Dawley rats [2]; G2 males of control fathers and exposed mothers): reduced PPI of startle
MWM tests (Sprague-Dawley rats [3]; G1 female rats): no significant group effects
MWM escape latencies (Sprague-Dawley rats [3]; G1 male rats, 5-day training period): no significant between-subjects effect
crossings over the escape platform location, MWM (Sprague-Dawley rats [3]; G1 male rats, probe test): fewer crossings
time in the target quadrant of the MWM (Sprague-Dawley rats [3]; G1 male rats, probe test): significantly less time
SMILES: FCOC(C(F)(F)F)C(F)(F)F [sevoflurane, 1,1,1,3,3,3-hexafluoro-2-(fluoromethoxy)propane]
DNA methylation in the Kcc2 gene promoter (Kcc2 gene promoter; hippocampus of G2 male progeny of both exposed parents, CpG site 1): increased DNA methylation
DNA methylation in the Kcc2 gene promoter (Kcc2 gene promoter; hippocampus of G2 male progeny of both exposed parents, CpG site 2): increased DNA methylation
DNA methylation in the Kcc2 gene promoter (Kcc2 gene promoter; hippocampus of G2 male progeny of both exposed parents, CpG site 3): increased DNA methylation
DNA methylation in the Kcc2 gene promoter (Kcc2 gene promoter; hypothalamus of G2 male progeny of both exposed parents, CpG site 1): increased DNA methylation
DNA methylation in the Kcc2 gene promoter (Kcc2 gene promoter; hypothalamus of G2 male progeny of both exposed parents, CpG site 2): increased DNA methylation
DNA methylation in the Kcc2 gene promoter (Kcc2 gene promoter; hypothalamus of G2 male progeny of both exposed parents, CpG site 3): increased DNA methylation
methylation of CpG sites in the Kcc2 gene promoter (Kcc2 gene promoter; ovarian tissue of G1 female rats, CpG site 1): increased methylation
methylation of CpG sites in the Kcc2 gene promoter (Kcc2 gene promoter; ovarian tissue of G1 female rats, CpG site 2): increased methylation
methylation of CpG sites in the Kcc2 gene promoter (Kcc2 gene promoter; sperm of G1 male rats, CpG site 1): increased methylation
methylation of CpG sites in the Kcc2 gene promoter (Kcc2 gene promoter; sperm of G1 male rats, CpG site 2): increased methylation
serum levels of testosterone [4]: long-term increase
